Measurements: the supplement of paper PMC11061612

Experiments:
[1] = compound: C1CN(CCC1(C(=O)N[C@@H](CCO)C2=CC=C(C=C2)Cl)N)C3=NC=NC4=C3C=CN4 [Capivasertib]
Summary of the method: (§1)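 Cancer cell lines were plated in 1536-well plates in 7.5 μl of DMEM/F12 or RPMI with 10% FBS and kept 24 hours at 37°C and 5% CO2 before 72 hours of dosing, with final DMSO typically 0.2%. CellTiter-Glo 2.0 luminescence measured viability, scaled between blank-well and DMSO-well means. Dose responses were fitted to a two-parameter logistic curve with a non-linear mixed effects model. This fit gives the single-agent IC50.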

[2] = compound: Cn1cnc2c(F)c(Nc3ccc(Br)cc3Cl)c(C(=O)NOCCO)cc21 [Selumetinib]
Summary of the method: as §1

[3] = compound: CCN(CCO)CCCOc1ccc2c(Nc3cc(CC(=O)Nc4cccc(F)c4)[nH]n3)ncnc2c1 [AZD2811]; details: max 1 µM
Summary of the method: as §1

[4] = compound: CC1(C)CCC(CN2CCN(c3ccc(C(=O)NS(=O)(=O)c4ccc(NCC5CCOCC5)c([N+](=O)[O-])c4)c(Oc4cnc5[nH]ccc5c4)c3)CC2)=C(c2ccc(Cl)cc2)C1 [Venetoclax]; details: max 1 µM
Summary of the method: as §1

[5] = compound: COc1cccc(OCCCN)c1-c1cc(Nc2cnc(C#N)cn2)n[nH]1 [Prexasertib]; details: max 1 µM
Summary of the method: as §1

[6] = compound: CN(CC[C@H](CSC1=CC=CC=C1)NC2=C(C=C(C=C2)S(=O)(=O)NC(=O)C3=CC=C(C=C3)N4CCC(CC4)[C@H](C5=CC=CC=C5C6=CC=C(C=C6)Cl)O)S(=O)(=O)C(F)(F)F)CCO [AZD4320]; details: max 1 µM
Summary of the method: as §1

[7] = compound: Cc1c2c(nn1C)CSCc1cc(n(C)n1)CSc1cc(c3ccccc3c1)OCCCc1c(C(=O)O)n(C)c3c-2c(Cl)ccc13 [AZD5991]; details: max 1 µM
Summary of the method: as §1

[8] = compound: C[C@@H](Nc1cc(F)cc(F)c1)c1cc(C(=O)N(C)C)cc2c(=O)cc(N3CCOCC3)oc12 [AZD8186]; details: max 3 µM
Summary of the method: as §1

[9] = compound: CC1=C(C(=CC=C1)Cl)NC(=O)C2=CN=C(S2)NC3=CC(=NC(=N3)C)N4CCN(CC4)CCO [Dasatinib]; details: max 2 µM
Summary of the method: as §1

[10] = compound: Cc1nc(-c2cn3c(n2)-c2ccc(-c4cnn(C(C)(C)C(N)=O)c4)cc2OCC3)n(C(C)C)n1 [Taselisib]; details: max 10 µM
Summary of the method: as §1

[11] = compound: C=CCn1c(=O)c2cnc(Nc3ccc(N4CCN(C)CC4)cc3)nc2n1-c1cccc(C(C)(C)O)n1 [AZD1775]; details: max 3 µM
Summary of the method: as §1

[12] = compound: CC(C)n1c(=O)n(C)c2cnc3cc(F)c(-c4ccc(OCCCN5CCCCC5)nc4)cc3c21 [AZD1390]; details: max 0.3 µM
Summary of the method: as §1

[13] = compound: COc1cccc2c1C(=O)c1c(O)c3c(c(O)c1C2=O)C[C@@](O)(C(=O)CO)C[C@@H]3O[C@H]1C[C@H](N)[C@H](O)[C@H](C)O1 [Doxorubicin]; details: max 1 µM
Summary of the method: as §1

[14] = compound: COc1cc2ncnc(Nc3ccc(F)c(Cl)c3)c2cc1OCCCN1CCOCC1 [Gefitinib]; details: max 10 µM
Summary of the method: as §1

[15] = compound: COc1cc(Nc2ncc3c(n2)-c2ccc(Cl)cc2C(c2c(F)cccc2OC)=NC3)ccc1C(=O)O [Alisertib]; details: max 10 µM
Summary of the method: as §1

[16] = compound: CC1=CN2[C@@H](C1)C=NC3=CC(=C(C=C3C2=O)OC)OCCCCCOC4=C(C=C5C(=C4)N=C[C@@H]6CC(=CN6C5=O)C)OC [SG3199]; details: max 0.001 µM
Summary of the method: as §1

[17] = compound: C[C@@H](c1ccc2nccn2c1)n1nnc2ncc(-c3cnn(C)c3)nc21 [Savolitinib]; details: max 1 µM
Summary of the method: as §1

[18] = compound: CS(=O)(=O)CCNCc1ccc(-c2ccc3ncnc(Nc4ccc(OCc5cccc(F)c5)c(Cl)c4)c3c2)o1 [Lapatinib]; details: max 10 µM
Summary of the method: as §1

[19] = compound: CCc1c2c(nc3ccc(O)cc13)-c1cc3c(c(=O)n1C2)COC(=O)[C@]3(O)CC [SN-38]; details: max 0.3 µM
Summary of the method: as §1

[20] = compound: CN(C)CCCOc1ccc(-c2ccc3ncc4c(c3c2)n(C2CCOCC2)c(=O)n4C)cn1 [AZD0156]; details: max 3 µM
Summary of the method: as §1

[21] = compound: C[C@@H]1COCCN1C2=NC(=NC(=C2)C3(CC3)[S@](=N)(=O)C)C4=C5C=CNC5=NC=C4 [AZD6738]; details: max 10 µM
Summary of the method: as §1

[22] = compound: CC(=O)c1c(C)c2cnc(Nc3ccc(N4CCNCC4)cn3)nc2n(C2CCCC2)c1=O [Palbociclib]; details: max 10 µM
Summary of the method: as §1

[23] = compound: C[C@@H](Oc1cc(-c2cnn(C3CCNCC3)c2)cnc1N)c1c(Cl)ccc(F)c1Cl [Crizotinib]; details: max 10 µM
Summary of the method: as §1

[24] = compound: COc1nnc2ccc(N3CCC(c4ccc(OCCN5CCN(C)C(=O)[C@H]5C)cc4)CC3)nn12 [AZD5153]; details: max 1 µM
Summary of the method: as §1

[25] = compound: O=C(c1cc(Cc2n[nH]c(=O)c3ccccc23)ccc1F)N1CCN(C(=O)C2CC2)CC1 [Olaparib]; details: max 10 µM
Summary of the method: as §1

[26] = compound: Cc1cc2ncnn2cc1Nc1ncc2c(n1)n(C1CCOCC1)c(=O)n2C [AZD7648]; details: max 10 µM
Summary of the method: as §1

[27] = compound: CC(=O)Nc1cccc(-n2c(=O)n(C3CC3)c(=O)c3c(Nc4ccc(I)cc4F)n(C)c(=O)c(C)c32)c1 [Trametinib]; details: max 1 µM
Summary of the method: as §1

Cell Line	IC50, cell viability 72 h ([1]; max 10 µM)	IC50, cell viability 72 h ([2]; max 10 µM)	IC50, cell viability 72 h [3]	IC50, cell viability 72 h [4]	IC50, cell viability 72 h [5]	IC50, cell viability 72 h [6]	IC50, cell viability 72 h [7]	IC50, cell viability 72 h [8]	IC50, cell viability 72 h [9]	IC50, cell viability 72 h [10]	IC50, cell viability 72 h [11]	IC50, cell viability 72 h [12]	IC50, cell viability 72 h [13]	IC50, cell viability 72 h [14]	IC50, cell viability 72 h [15]	IC50, cell viability 72 h [16]	IC50, cell viability 72 h [17]	IC50, cell viability 72 h [18]	IC50, cell viability 72 h [19]	IC50, cell viability 72 h [20]	IC50, cell viability 72 h [21]	IC50, cell viability 72 h [22]	IC50, cell viability 72 h [23]	IC50, cell viability 72 h [24]	IC50, cell viability 72 h [25]	IC50, cell viability 72 h [26]	IC50, cell viability 72 h [27]	IC50, cell viability 72 h ([1]; max 3 µM)	IC50, cell viability 72 h ([2]; max 3 µM)
C-4-I (Cervical Carcinoma)	> 10000 nM	> 10000 nM	> 1000 nM	> 1000 nM	18.5 nM	> 1000 nM	288 nM	> 3000 nM	> 2000 nM	2550 nM	195 nM	> 300 nM	302 nM	> 10000 nM	3420 nM	> 1 nM	> 1000 nM	7230 nM	41 nM	> 3000 nM	2520 nM	> 10000 nM	> 10000 nM	889 nM	> 10000 nM	> 10000 nM	773 nM		
HOP-62 (Lung Adenocarcinoma)	> 10000 nM	8920 nM	> 1000 nM	> 1000 nM	225 nM	> 1000 nM	> 1000 nM	> 3000 nM	956 nM	> 10000 nM	> 3000 nM	> 300 nM	> 1000 nM	> 10000 nM	8660 nM	> 1 nM	> 1000 nM	> 10000 nM	101 nM	> 3000 nM	> 10000 nM	> 10000 nM	> 10000 nM	243 nM	> 10000 nM	> 10000 nM	200 nM		
JVM-3 (B-Cell Non-Hodgkin's Lymphoma)			> 1000 nM	> 1000 nM	7.34 nM	80.9 nM	> 1000 nM	> 3000 nM		1610 nM	117 nM		84.3 nM		1600 nM	> 1 nM			2.05 nM	> 3000 nM	4320 nM				> 10000 nM	> 10000 nM	270 nM	> 3000 nM	1980 nM
KMOE-2 (Acute Myeloid Leukemia)	> 10000 nM	104 nM	> 1000 nM	> 1000 nM	55.8 nM	409 nM	773 nM	> 3000 nM	> 2000 nM	9870 nM	411 nM	> 300 nM	881 nM	> 10000 nM	465 nM	> 1 nM	> 1000 nM	> 10000 nM	40 nM	> 3000 nM	8120 nM	> 10000 nM	> 10000 nM	102 nM	> 10000 nM	> 10000 nM	1.74 nM		
NCI-H1915 (Non-Small Cell Lung Carcinoma)	> 10000 nM	3910 nM	> 1000 nM	> 1000 nM	335 nM	> 1000 nM	> 1000 nM	> 3000 nM	567 nM	> 10000 nM	2870 nM	> 300 nM	> 1000 nM	> 10000 nM	5150 nM	> 1 nM	> 1000 nM	> 10000 nM	61.6 nM	> 3000 nM	> 10000 nM	> 10000 nM	> 10000 nM	> 1000 nM	> 10000 nM	> 10000 nM	34.7 nM		
NEC8 (Other Solid Carcinomas)	> 10000 nM	> 10000 nM	> 1000 nM	> 1000 nM	35.7 nM	> 1000 nM	> 1000 nM	> 3000 nM	> 2000 nM	> 10000 nM	558 nM	> 300 nM	595 nM	> 10000 nM	> 10000 nM	> 1 nM	> 1000 nM	> 10000 nM	21.5 nM	> 3000 nM	5760 nM	> 10000 nM	> 10000 nM	226 nM	> 10000 nM	> 10000 nM	> 1000 nM		
OE19 (Esophageal Adenocarcinoma)	> 10000 nM	> 10000 nM	390 nM	> 1000 nM	105 nM	> 1000 nM	> 1000 nM	> 3000 nM	> 2000 nM	2180 nM	> 3000 nM	> 300 nM	> 1000 nM	1360 nM	167 nM	> 1 nM	> 1000 nM	287 nM	> 300 nM	> 3000 nM	4050 nM	> 10000 nM	3810 nM	907 nM	> 10000 nM	> 10000 nM	> 1000 nM		
